Experimental findings from patent publication US20240383874A1, “BENZENE RING DERIVATIVE, AND COMPOSITION AND PHARMACEUTICAL USE THEREOF” (Xizang Haisco Pharmaceutical Co., Ltd., priority 2020, published 2024) are described below.

Structures can show the parent of a compound that is named as a salt.

One assay has as its system 22RV1 cells. As to the kind of experiment: Experiment 2 on inhibiting 22RV1 cell proliferation (7 days, CellTiter-Glo). It counts as cell-based. Particulars: 1% css-FBS phenol red-free medium, incubated with compound 7 days, read-out: IC50 values on proliferation inhibition of 22RV1 cells. How it is done:
Prostate cancer cells 22RV1 were purchased from ATCC, the cell medium was RPMI 1640+10% FBS, and the cells were cultured in an incubator at 37° C. under 5% CO2. On day 1, the cells in an exponential phase were collected. With a 1% css-FBS phenol red-free medium, the cell suspension was adjusted to a corresponding concentration, plated at 2000 cells/well and incubated overnight. On day 2, compounds at different concentrations were added, and the plate was placed in the incubator and incubated for further 7 days. After the incubation was completed, according to operation instructions for a CellTiter-Glo kit (Promega, G7573), 50 μL of CTG solution, which was already pre-melted and equilibrated to room temperature, was added to each well, and the mixtures were uniformly mixed for 2 min using a microplate shaker. The plate was placed at room temperature for 10 min, and then fluorescence signal values were measured using a microplate reader (PHERAstar FSX). The results were processed according to formula (2), the survival rate of the compound at different concentrations was calculated, and the IC50 value of the compound with a survival rate of 50% was calculated using origin9.2 software with DoseResp function, wherein RLU compound was the readout of the treated group, and RLU control was the average value of the DMSO vehicle control group.
Background: ATP-based viability assays read luminescence as a measure of living cells.
For the compound `CC(C)(c1ccc(OCc2ccnc(N3CC4(CCN(C5CCN(C6CN(c7ccc8c(c7)C(=O)N(C7CCC(=O)NC7=O)C8=O)C6)CC5)CC4)C3)n2)cc1)c1cc(Cl)c(OCCCl)c(C#N)c1` (stereo not drawn) [Compound 23, 3-chloro-2-(2-chloroethoxy)-5-(2-(4-((2-(7-(1-(1-(2-(2,6-dioxopiperidin-3-yl)-1,3-dioxoisoindolin-5-yl)azetidin-3-yl)piperidin-4-yl)-2,7-diazaspiro[3.5]nonan-2-yl)pyrimidin-4-yl)methoxy)phenyl)propan-2-yl)benzonitrile], the IC50 was 500 nM.

With `CC(C)(c1ccc(OCc2ccnc(N3CCC4(CC3)CN(C3CCN(CC5CCN(c6ccc7c(c6)C(=O)N(C6CCC(=O)NC6=O)C7=O)CC5)CC3)C4)n2)cc1)c1cc(Cl)c(OCCCl)c(C#N)c1` (stereo not drawn) [Compound 21, 3-chloro-2-(2-chloroethoxy)-5-(2-(4-((2-(2-(1-((1-(2-(2,6-dioxopiperidin-3-yl)-1,3-dioxoisoindolin-5-yl)piperidin-4-yl)methyl)piperidin-4-yl)-2,7-diazaspiro[3.5]nonan-7-yl)pyrimidin-4-yl)methoxy)phenyl)propan-2-yl)benzonitrile], the IC50 came to 507 nM.

The assay is the same for the next values; noted with them: Homo sapiens, 22Rv1, 168 h, 1% css-FBS phenol red-free medium, incubated with compound 7 days, read-out: IC50 values on proliferation inhibition of 22RV1 cells.
Take `CCOc1c(Cl)cc(C(C)(C)c2ccc(OCc3ccnc(N4CCC(CN(C)C5CCN(c6ccc7c(c6)n(C)c(=O)n7C6CCC(=O)NC6=O)CC5)CC4)n3)cc2)cc1C#N` (stereo not drawn) [Compound 102 trifluoroacetate, 3-chloro-5-(2-(4-((2-(4-(((1-(1-(2,6-dioxopiperidin-3-yl)-3-methyl-2-oxo-2,3-dihydro-1H-benzo[d]imidazol-5-yl)piperidin-4-yl)(methyl)amino)methyl)piperidin-1-yl)pyrimidin-4-yl)methoxy)phenyl)propan-2-yl)-2-ethoxybenzonitrile]: the IC50 amounted to 641 nM.

On to `CC(C)(c1ccc(OCc2ccnc(N3CCC(CN4CCC5(CC4)CCN(c4ccc6c(c4)C(=O)N(C4CCC(=O)NC4=O)C6=O)CC5)CC3)n2)cc1)c1cc(Cl)cc(C#N)c1` (stereo not drawn) [Compound 77 trifluoroacetate, 3-chloro-5-(2-(4-((2-(4-((9-(2-(2,6-dioxopiperidin-3-yl)-1,3-dioxoisoindolin-5-yl)-3,9-diazaspiro[5.5]undecan-3-yl)methyl)piperidin-1-yl)pyrimidin-4-yl)methoxy)phenyl)propan-2-yl)benzonitrile], for which the IC50 worked out at 192 nM.

For `CC(C)(c1ccc(OCc2ccnc(N3CCN(C4CCN(CC5CN(c6ccc7c(c6)C(=O)N(C6CCC(=O)NC6=O)C7=O)C5)C4)CC3)n2)cc1)c1cc(Cl)cc(C#N)c1` (stereo not drawn) [Compound 61 trifluoroacetate, 3-chloro-5-(2-(4-((2-(4-(1-((1-(2-(2,6-dioxopiperidin-3-yl)-1,3-dioxoisoindolin-5-yl)azetidin-3-yl)methyl)pyrrolidin-3-yl)piperazin-1-yl)pyrimidin-4-yl)methoxy)phenyl)propan-2-yl)benzonitrile], the IC50 was 632 nM.

Consider `CC(C)(c1ccc(OCc2ccnc(N3CCN(C4CN(CC5CCN(c6ccc7c(c6)C(=O)N(C6CCC(=O)NC6=O)C7=O)CC5)C4)CC3)n2)cc1)c1cc(Cl)cc(C#N)c1` (stereo not drawn) [Compound 56 trifluoroacetate, 3-chloro-5-(2-(4-((2-(4-(1-((1-(2-(2,6-dioxopiperidin-3-yl)-1,3-dioxoisoindolin-5-yl)piperidin-4-yl)methyl)azetidin-3-yl)piperazin-1-yl)pyrimidin-4-yl)methoxy)phenyl)propan-2-yl)benzonitrile], for which the IC50 is 716 nM.

Consider `CCOc1c(Cl)cc(C(C)(C)c2ccc(OCc3ccnc(N4CCC5(CC4)CC(N4CCC(CN6CCC(c7ccc8c(c7)n(C)c(=O)n8C7CCC(=O)NC7=O)CC6)CC4)C5)n3)cc2)cc1C#N` (stereo not drawn) [Compound 109 trifluoroacetate, 3-chloro-5-(2-(4-((2-(2-(4-((4-(1-(2,6-dioxopiperidin-3-yl)-3-methyl-2-oxo-2,3-dihydro-1H-benzo[d]imidazol-5-yl)piperidin-1-yl)methyl)piperidin-1-yl)-7-azaspiro[3.5]nonan-7-yl)pyrimidin-4-yl)methoxy)phenyl)propan-2-yl)-2-ethoxybenzonitrile], for which the IC50 is 330 nM.

With `Cn1c(=O)n(C2CCC(=O)NC2=O)c2cccc(CN3CCC(CN4CCC(C5CCN(c6nccc(COc7ccc(C(C)(C)c8cc(Cl)cc(C#N)c8)cc7)n6)CC5)CC4)CC3)c21` (stereo not drawn) [Compound 74 trifluoroacetate, 3-chloro-5-(2-(4-((2-(1′-((1-((1-(2,6-dioxopiperidin-3-yl)-3-methyl-2-oxo-2,3-dihydro-1H-benzo[d]imidazol-4-yl)methyl)piperidin-4-yl)methyl)-[4,4′-bipiperidin]-1-yl)pyrimidin-4-yl)methoxy)phenyl)propan-2-yl)benzonitrile], the IC50 was determined as 474 nM.

Turning to `Cn1c(=O)n(C2CCC(=O)NC2=O)c2ccc(CN3CC(N4CCC(N5CCN(c6nccc(COc7ccc(C(C)(C)c8cc(Cl)cc(C#N)c8)cc7)n6)CC5)CC4)C3)cc21` (stereo not drawn) [Compound 71 trifluoroacetate, 3-chloro-5-(2-(4-((2-(4-(1-(1-((1-(2,6-dioxopiperidin-3-yl)-3-methyl-2-oxo-2,3-dihydro-1H-benzo[d]imidazol-5-yl)methyl)azetidin-3-yl)piperidin-4-yl)piperazin-1-yl)pyrimidin-4-yl)methoxy)phenyl)propan-2-yl)benzonitrile], the IC50 came to 811 nM.

For the compound `Cn1c(=O)n(C2CCC(=O)NC2=O)c2cccc(CN3CCC4(CC3)CC(N3CCC5(CCN(c6nccc(COc7ccc(C(C)(C)c8cc(Cl)cc(C#N)c8)cc7)n6)CC5)CC3)C4)c21` (stereo not drawn) [Compound 101 trifluoroacetate, 3-chloro-5-(2-(4-((2-(9-(7-((1-(2,6-dioxopiperidin-3-yl)-3-methyl-2-oxo-2,3-dihydro-1H-benzo[d]imidazol-4-yl)methyl)-7-azaspiro[3.5]nonan-2-yl)-3,9-diazaspiro[5.5]undecan-3-yl)pyrimidin-4-yl)methoxy)phenyl)propan-2-yl)benzonitrile], the IC50 came out at 699 nM.

As to `CC(C)(c1ccc(OCc2ccnc(N3CCN(C4CN(C5CC6(CCN(c7ccc8c(c7)C(=O)N(C7CCC(=O)NC7=O)C8=O)CC6)C5)C4)CC3)n2)cc1)c1cc(Cl)cc(C#N)c1` (stereo not drawn) [Compound 53 trifluoroacetate, 3-chloro-5-(2-(4-((2-(4-(1-(7-(2-(2,6-dioxopiperidin-3-yl)-1,3-dioxoisoindolin-5-yl)-7-azaspiro[3.5]nonan-2-yl)azetidin-3-yl)piperazin-1-yl)pyrimidin-4-yl)methoxy)phenyl)propan-2-yl)benzonitrile], the IC50 turned out to be 623 nM.

`CC(C)(c1ccc(OCc2ccnc(N3CCN(CC4CCN(C5CC6(CCN(c7ccc8c(c7)C(=O)N(C7CCC(=O)NC7=O)C8=O)CC6)C5)C4)CC3)n2)cc1)c1cc(Cl)cc(C#N)c1` (stereo not drawn) [Compound 66 trifluoroacetate, 3-chloro-5-(2-(4-((2-(4-((1-(7-(2-(2,6-dioxopiperidin-3-yl)-1,3-dioxoisoindolin-5-yl)-7-azaspiro[3.5]nonan-2-yl)pyrrolidin-3-yl)methyl)piperazin-1-yl)pyrimidin-4-yl)methoxy)phenyl)propan-2-yl)benzonitrile]: the IC50 worked out at 584 nM.
